Assay: Treatment-emergent adverse events (MedDRA, NCI-CTCAE v4.03), safety populations
Format: in vivo, human
Details: Part B, 400 mg QD (N = 49)
Method: Overall safety in Parts A and B was assessed by tabulating TEAEs, coded using the Medical Dictionary for Regulatory Activities (MedDRA) version 22.1, and graded according to NCI-CTCAE v4.03 criteria. TEAEs were classified as related or unrelated to amcenestrant therapy based upon the local investigating physician’s clinical judgment. The safety population included all patients exposed to at least one dose of the study treatment. Results were analyzed using descriptive statistics.

SMILES: O=C(O)c1ccc2c(c1)CCCC(c1ccc(Cl)cc1Cl)=C2c1ccc(O[C@H]2CCN(CCCF)C2)cc1 [amcenestrant, 6-(2,4-Dichlorophenyl)−5-[4-[(3S)−1-(3-fluoropropyl)pyrrolidin-3-yl]oxyphenyl]−8,9-dihydro-7H-benzo[7]annulene-2-carboxylic acid]
- Back pain, TEAEs, All grades: 5 (10.2) n (%)
- Back pain, TEAEs, Grade 1: 3 (6.1) n (%)
- Back pain, TEAEs, Grade 2: 2 (4.1) n (%)
- Back pain, TEAEs, Grade ≥3: 0 n (%)
- Back pain, Treatment-related TEAEs, All Grades: 0 n (%)
- Back pain, Treatment-related TEAEs, Grade 1: 0 n (%)
- Back pain, Treatment-related TEAEs, Grade 2: 0 n (%)
- Back pain, Treatment-related TEAEs, Grade ≥3: 0 n (%)
- Constipation, TEAEs, All grades: 14 (28.6) n (%)
- Constipation, TEAEs, Grade 1: 12 (24.5) n (%)
- Constipation, TEAEs, Grade 2: 2 (4.1) n (%)
- Constipation, TEAEs, Grade ≥3: 0 n (%)
- Constipation, Treatment-related TEAEs, All Grades: 3 (6.1) n (%)
- Constipation, Treatment-related TEAEs, Grade 1: 2 (4.1) n (%)
- Constipation, Treatment-related TEAEs, Grade 2: 1 (2.0) n (%)
- Constipation, Treatment-related TEAEs, Grade ≥3: 0 n (%)
- Cough, TEAEs, All grades: 4 (8.2) n (%)
- Cough, TEAEs, Grade 1: 4 (8.2) n (%)
- Cough, TEAEs, Grade 2: 0 n (%)
- Cough, TEAEs, Grade ≥3: 0 n (%)
- Cough, Treatment-related TEAEs, All Grades: 1 (2.0) n (%)
- Cough, Treatment-related TEAEs, Grade 1: 1 (2.0) n (%)
- Cough, Treatment-related TEAEs, Grade 2: 0 n (%)
- Cough, Treatment-related TEAEs, Grade ≥3: 0 n (%)
- Decreased appetite, TEAEs, All grades: 7 (14.3) n (%)
- Decreased appetite, TEAEs, Grade 1: 5 (10.2) n (%)
- Decreased appetite, TEAEs, Grade 2: 2 (4.1) n (%)
- Decreased appetite, TEAEs, Grade ≥3: 0 n (%)
- Decreased appetite, Treatment-related TEAEs, All Grades: 2 (4.1) n (%)
- Decreased appetite, Treatment-related TEAEs, Grade 1: 2 (4.1) n (%)
- Decreased appetite, Treatment-related TEAEs, Grade 2: 0 n (%)
- Decreased appetite, Treatment-related TEAEs, Grade ≥3: 0 n (%)
- Depression, TEAEs, All grades: 3 (6.1) n (%)
- Depression, TEAEs, Grade 1: 3 (6.1) n (%)
- Depression, TEAEs, Grade 2: 0 n (%)
- Depression, TEAEs, Grade ≥3: 0 n (%)
- Depression, Treatment-related TEAEs, All Grades: 2 (4.1) n (%)
- Depression, Treatment-related TEAEs, Grade 1: 2 (4.1) n (%)
- Depression, Treatment-related TEAEs, Grade 2: 0 n (%)
- Depression, Treatment-related TEAEs, Grade ≥3: 0 n (%)
- Diarrhea, TEAEs, All grades: 8 (16.3) n (%)
- Diarrhea, TEAEs, Grade 1: 5 (10.2) n (%)
- Diarrhea, TEAEs, Grade 2: 2 (4.1) n (%)
- Diarrhea, TEAEs, Grade ≥3: 1 (2.0) n (%)
- Diarrhea, Treatment-related TEAEs, All Grades: 1 (2.0) n (%)
- Diarrhea, Treatment-related TEAEs, Grade 1: 1 (2.0) n (%)
- Diarrhea, Treatment-related TEAEs, Grade 2: 0 n (%)
- Diarrhea, Treatment-related TEAEs, Grade ≥3: 0 n (%)
- Dry skin, TEAEs, All grades: 3 (6.1) n (%)
- Dry skin, TEAEs, Grade 1: 2 (4.1) n (%)
- Dry skin, TEAEs, Grade 2: 1 (2.0) n (%)
- Dry skin, TEAEs, Grade ≥3: 0 n (%)
- Dry skin, Treatment-related TEAEs, All Grades: 1 (2.0) n (%)
- Dry skin, Treatment-related TEAEs, Grade 1: 1 (2.0) n (%)
- Dry skin, Treatment-related TEAEs, Grade 2: 0 n (%)
- Dry skin, Treatment-related TEAEs, Grade ≥3: 0 n (%)
- Dyspnea, TEAEs, All grades: 8 (16.3) n (%)
- Dyspnea, TEAEs, Grade 1: 6 (12.2) n (%)
- Dyspnea, TEAEs, Grade 2: 2 (4.1) n (%)
- Dyspnea, TEAEs, Grade ≥3: 0 n (%)
- Dyspnea, Treatment-related TEAEs, All Grades: 1 (2.0) n (%)
- Dyspnea, Treatment-related TEAEs, Grade 1: 1 (2.0) n (%)
- Dyspnea, Treatment-related TEAEs, Grade 2: 0 n (%)
- Dyspnea, Treatment-related TEAEs, Grade ≥3: 0 n (%)
- Edema peripheral, TEAEs, All grades: 3 (6.1) n (%)
- Edema peripheral, TEAEs, Grade 1: 3 (6.1) n (%)
- Edema peripheral, TEAEs, Grade 2: 0 n (%)
- Edema peripheral, TEAEs, Grade ≥3: 0 n (%)
- Edema peripheral, Treatment-related TEAEs, All Grades: 1 (2.0) n (%)
- Edema peripheral, Treatment-related TEAEs, Grade 1: 1 (2.0) n (%)
- Edema peripheral, Treatment-related TEAEs, Grade 2: 0 n (%)
- Edema peripheral, Treatment-related TEAEs, Grade ≥3: 0 n (%)
- Fatigue, TEAEs, All grades: 12 (24.5) n (%)
- Fatigue, TEAEs, Grade 1: 8 (16.3) n (%)
- Fatigue, TEAEs, Grade 2: 2 (4.1) n (%)
- Fatigue, TEAEs, Grade ≥3: 2 (4.1) n (%)
- Fatigue, Treatment-related TEAEs, All Grades: 2 (4.1) n (%)
- Fatigue, Treatment-related TEAEs, Grade 1: 2 (4.1) n (%)
- Fatigue, Treatment-related TEAEs, Grade 2: 0 n (%)
- Fatigue, Treatment-related TEAEs, Grade ≥3: 0 n (%)
- Gastroesophageal reflux disease, TEAEs, All grades: 4 (8.2) n (%)
- Gastroesophageal reflux disease, TEAEs, Grade 1: 4 (8.2) n (%)
- Gastroesophageal reflux disease, TEAEs, Grade 2: 0 n (%)
- Gastroesophageal reflux disease, TEAEs, Grade ≥3: 0 n (%)
- Gastroesophageal reflux disease, Treatment-related TEAEs, All Grades: 3 (6.1) n (%)
- Gastroesophageal reflux disease, Treatment-related TEAEs, Grade 1: 3 (6.1) n (%)
- Gastroesophageal reflux disease, Treatment-related TEAEs, Grade 2: 0 n (%)
- Gastroesophageal reflux disease, Treatment-related TEAEs, Grade ≥3: 0 n (%)
- Headache, TEAEs, All grades: 3 (6.1) n (%)
- Headache, TEAEs, Grade 1: 3 (6.1) n (%)
- Headache, TEAEs, Grade 2: 0 n (%)
- Headache, TEAEs, Grade ≥3: 0 n (%)

From paper PMC9284491 (Nature Communications, 2022)
